Test results as given in patent US10654876B2, “TH-302 solid forms and methods related thereto” (Molecular Templates, Inc., priority 2014, dated 2020).

Assays:
[1] = Stability of crystalline form A to relative humidity; type: physicochemical; settings: 15% relative humidity (RH) at 25° C.; anhydrous crystalline form A
Description: (§1) Crystalline form A of TH-302 is anhydrous which is stable to 15% relative humidity (RH) at 25° C. No change in the chemical purity of TH-302 was observed after one week when in accelerated stability tests at high temperature (40° C.) and high relative humidity (75% RH). An improvement in the physical appearance of a dosage form of a drug enhances both physician and patient acceptance and increases the likelihood of success of the treatment.

[2] = Accelerated stability test at high temperature and high relative humidity; type: physicochemical; settings: 40° C., 75% RH, after one week
Description: as §1

SMILES: Cn1c(COP(=O)(NCCBr)NCCBr)cnc1[N+](=O)[O-] [TH-302, N,N′-Bis(2-bromoethyl)phosphorodiamidic acid (1-methyl-2-nitro-1H-imidazol-5-yl)methyl ester]
- stability to relative humidity [1]: stable
- change in the chemical purity [2]: No change
